“Also recorded” adds a separate entry of the source.
Experiments:
[1] = tested on: MCF-7 cells stably transfected with CUEDC2; assay: Cell growth by cell counting under different doses of tamoxifen; type: cell-based
Description: (§1) MCF-7 cells stably transfected with CUEDC2 were treated with different doses of tamoxifen, and then the cell growth was observed by a cell counting method. […] In order to eliminate nonspecific effects of over expression of CUEDC2 on cells growth, the inventors knocked down the CUEDC2 expression in the cells and did the same cell growth experiment. […] In order to verify the above conclusion, the inventors further conducted animal experiments. 5×10^6 MCF-7/vector or MCF-7/CUEDC2 cells were injected into the mammary fat pad of ovariectomized nude mice, and estrogen sustained-release tablets were embedded subcutaneously. When tumors grew to 100-150 mm^3, nude mice were divided into two groups randomly, and embedded with tamoxifen or control placebo pills subcutaneously.

[2] = tested on: MCF-7/vector or MCF-7/CUEDC2 cells; assay: Tumor formation in ovariectomized nude mice (mammary fat pad xenograft); type: in vivo; details: tamoxifen sustained-release tablets subcutaneously, vs placebo
Description: 4-week-old female nude mice were purchased from Animal Laboratory Center of the Academy of Military Medical Sciences; the Cell Titer Glo Luminescent Cell Viability Assay was purchased from Promega Company; the Estrogen and tamoxifen sustained-release tablets were purchased from Innovative Research of America.
as §1

MCF-7 cells = assay: Crystal violet colony-formation assay; type: cell-based

In the case of CC/C(=C(\c1ccccc1)c1ccc(OCCN(C)C)cc1)c1ccccc1 [tamoxifen], the “sensitivity of cell growth to tamoxifen” value ([1]; MCF-7 cells over expressing CUEDC2, different doses of tamoxifen) is reported as “insensitive”, the “sensitivity of cells to tamoxifen after CUEDC2 knockdown” value ([1]; MCF-7 cells over expressing CUEDC2 knocked down by CUEDC2 siRNA) is reported as “restored the sensitivity” and the tumor growth ([2]; MCF-7/CUEDC2 cells in nude mice) is reported as “could not effectively inhibit; also recorded: cannot inhibit tumor growth effectively”. For the same molecule, the tumor growth ([2]; MCF-7/vector cells in nude mice) was “significantly inhibit”, the “sensitivity to tamoxifen-induced cell death” value (MCF-7 cells; cells over expressing CUEDC2) was “insensitive” and the “sensitivity to tamoxifen-induced cell death” value (MCF-7 cells; control MCF-7 empty vector cells) was “sensitive”.

From patent US9200067B2, “Molecular marker CUEDC2 protein for prognostic determination of breast cancer endocrinology therapy” (Biomedical Analysis Center of Academy of Military Medical …, priority 2011, dated 2015)
